Experimental data reported in PMC9569680, “Antiviral Compounds Screening Targeting HBx Protein of the Hepatitis B Virus” (International Journal of Molecular Sciences, 2022).
Structures can show the parent of a compound that is named as a salt. Where two headings read alike, the source gives them in different places.

Assays:
[1] = target: T1, GST-HBx (genotype D); HBx-D (Hepatitis B virus, UniProt Q80IS1); assay: biochemical; set-up: Surface plasmon resonance imaging; GST-HBx injected over chip of photo-crosslinked FDA-approved drugs (PlexArray HT), Langmuir fit
T1 construct: gene X; N-terminal GST tag kept (GST 26 kDa; GST-HBx 43 kDa), full-length HBx (154 aa), pGEX, E. coli BL21 (DE3), glutathione-Sepharose
Description: All the assays and analyses were performed by Plexera LLC. The binding activity was measured by surface plasmon resonance imaging (SPRi) using a PlexArray HT system (Plexera LLC). The FDA1018 drug library chip consists of an array of 1018 U.S. FDA-approved drugs were ultraviolet-linked on the surface of a chip and used for screening of compounds that bind to the HBx protein. Phosphate-buffered saline was used for a running buffer and 10 mM glycine hydrochloride (pH 2.0) for a regeneration buffer. 25, 50, or 100 nM of GST-HBx protein were injected on the chip surface at a flow rate of […] in order, and the SPRi signal was measured at 25 °C. FK506-binding protein 12 (FKBP12) was used for a positive control (Supplementary Figure S1). The data were analyzed by Plexera Data Analysis Software based on Langmuir adsorption isotherm, and determination of the dissociation constant, dissociation rate constant, and association rate constant was carried out. The binding of GST-HBx protein to 1018 FDA-approved compounds was screened on a chip by SPRi assay. […] Because purification of HBx alone was difficult due to insolubility, HBx was expressed as a GST-fused protein.

[2] = target: T1, GST-HBx (genotype D); HBx-D; assay: SPR imaging, compound array (PlexArray HT); assay type: binding
Description: SPR imaging, compound array (PlexArray HT) on GST-HBx (genotype D); HBx-D

[3] = target: T2, GST-HBx (genotype B); HBx-B; assay: SPR imaging, compound array (PlexArray HT); set-up: species or system Hepatitis B virus; conditions: PBS, 25 °C; compound UV-linked to chip surface, GST-HBx 25-100 nM as analyte
T2 construct: gene X; N-terminal GST tag kept (GST 26 kDa; GST-HBx 43 kDa), full-length HBx (154 aa), pGEX, E. coli BL21 (DE3), glutathione-Sepharose

SMILES | koff [1] | kon ([1]; read-out: kon) | Kd [2] | Kd [1] | Kd [3] | kon ([1]; binder, kon (M-1 s-1))
CCCCC(CC)CNC(=N)NC(=N)NCCCCCCNC(=N)NC(=N)NCC(CC)CCCC (stereo not drawn) [Alexidine hydrochloride] | 7.83e-06 s⁻¹ | 158000 M⁻¹ s⁻¹ | 0.0495 nM |  |  | 
CC1(C)[C@@H](O[C@H]2O[C@H](C(=O)O)[C@@H](O)[C@H](O)[C@H]2O[C@@H]2O[C@H](C(=O)O)[C@@H](O)[C@H](O)[C@H]2O)CC[C@]2(C)[C@H]3C(=O)C=C4[C@@H]5C[C@@](C)(C(=O)O)CC[C@]5(C)CC[C@@]4(C)[C@]3(C)CC[C@@H]12 [Ammonium glycyrrhizinate] | 0.000108 s⁻¹ | 143000 M⁻¹ s⁻¹ | 0.756 nM |  |  | 
CCOc1nc2cccc(C(=O)O)c2n1Cc1ccc(-c2ccccc2-c2noc(=O)[nH]2)cc1 [Azilsartan] | 0.000348 s⁻¹ | 146000 M⁻¹ s⁻¹ |  | 2.38 nM |  | 
CC[C@H]1OC(=O)[C@H](C)[C@@H](O[C@H]2C[C@@](C)(OC)[C@@H](O)[C@H](C)O2)[C@H](C)[C@@H](O[C@@H]2O[C@H](C)C[C@H](N(C)C)[C@H]2O)[C@](C)(O)C[C@@H](C)CN(C)[C@H](C)[C@@H](O)[C@]1(C)O [Azithromycin] |  | 85100 M⁻¹ s⁻¹ | 0.0467 nM | 1.15 nM | 1.31 nM | 89200 M⁻¹ s⁻¹
CC(C)NCC(O)COc1ccc(CCOCC2CC2)cc1 (stereo not drawn) [Betaxolol] | 9.85e-06 s⁻¹ | 7710 M⁻¹ s⁻¹ |  | 1.28 nM |  | 
CCOc1nc2cccc(C(=O)O)c2n1Cc1ccc(-c2ccccc2-c2nnn[nH]2)cc1 [Candesartan] | 0.00021 s⁻¹ | 158000 M⁻¹ s⁻¹ |  | 1.33 nM |  | 
O=C(O)c1ccc(-n2nc(-c3ccccc3O)nc2-c2ccccc2O)cc1 [Deferasirox] | 0.000134 s⁻¹ | 95800 M⁻¹ s⁻¹ |  | 1.4 nM |  | 
CCCCCCCCCCCC[N+](C)(C)CCOc1ccccc1 [Domiphen Bromide] | 3.03e-06 s⁻¹ | 105000 M⁻¹ s⁻¹ | 0.0288 nM |  |  | 
CC1=NN(c2ccc(C)c(C)c2)C(=O)/C1=N\Nc1cccc(-c2cccc(C(=O)O)c2)c1O [Eltrombopag] | 0.000385 s⁻¹ | 45500 M⁻¹ s⁻¹ |  | 8.46 nM |  | 
CCC1=C(C)CN(C(=O)NCCc2ccc(S(=O)(=O)NC(=O)N[C@H]3CC[C@H](C)CC3)cc2)C1=O [Glimepiride] | 0.000366 s⁻¹ | 37300 M⁻¹ s⁻¹ |  | 9.81 nM |  | 
Cc1cnc(C(=O)NCCc2ccc(S(=O)(=O)NC(=O)NC3CCCCC3)cc2)cn1 [Glipizide] | 0.000203 s⁻¹ | 45100 M⁻¹ s⁻¹ |  | 4.49 nM |  | 
CC(C)[C@H]1CC[C@H](C(=O)N[C@H](Cc2ccccc2)C(=O)O)CC1 [Nateglinide] | 0.00016 s⁻¹ | 69100 M⁻¹ s⁻¹ |  | 2.31 nM |  | 
CCCc1nc(C(C)(C)O)c(C(=O)OCc2oc(=O)oc2C)n1Cc1ccc(-c2ccccc2-c2nnn[nH]2)cc1 [Olmesartan medoxomil] | 0.000581 s⁻¹ | 108000 M⁻¹ s⁻¹ |  |  |  | 
CC(C(=O)O)c1ccc2c(c1)Cc1cccnc1O2 (stereo not drawn) [Pranoprofen] | 0.000292 s⁻¹ | 52300 M⁻¹ s⁻¹ |  | 5.58 nM |  | 
Cc1noc(NS(=O)(=O)c2ccc(N)cc2)c1C [Sulfisoxazole] | 0.000509 s⁻¹ | 51500 M⁻¹ s⁻¹ |  | 9.88 nM |  | 
CC(C(=O)O)c1ccc(C(=O)c2cccs2)cc1 (stereo not drawn) [Suprofen] | 0.000308 s⁻¹ | 112000 M⁻¹ s⁻¹ |  | 2.75 nM |  | 
CC[C@H]1OC(=O)C[C@@H](O)[C@H](C)[C@@H](O[C@@H]2O[C@H](C)[C@@H](O)[C@H](N(C)C)[C@H]2O)[C@@H](CCN2C[C@H](C)C[C@H](C)C2)C[C@@H](C)C(=O)/C=C/C(C)=C/[C@@H]1CO[C@@H]1O[C@H](C)[C@@H](O)[C@@H](OC)[C@H]1OC [Tilmicosin] | 8.79e-05 s⁻¹ | 67700 M⁻¹ s⁻¹ |  | 1.3 nM |  | 
COc1ccc(/C=C/C(=O)Nc2ccccc2C(=O)O)cc1OC [Tranilast] | 2.61e-07 s⁻¹ | 194000 M⁻¹ s⁻¹ | 0.00135 nM |  | 0.184 nM | 
CCCCC(=O)N(Cc1ccc(-c2ccccc2-c2nn[nH]n2)cc1)[C@H](C(=O)O)C(C)C [Valsartan] | 0.00017 s⁻¹ | 186000 M⁻¹ s⁻¹ | 0.912 nM |  | 7.94 nM | 
